Measured values published in the Deep4Chem optical property database.
Each block holds one compound with its values, some of them ahead of it.

Experiment: solvent given as SMILES

SMILES: Cc1c2oc3c(C)c(N)cc(C(=O)NC4OC(=O)C(C(C)C)N(C)C(=O)CN(C)C(=O)C5CCCN5C(=O)C(C(C)C)NC4=O)c3nc-2c(C(=O)NC2OC(=O)C(C(C)C)N(C)C(=O)CN(C)C(=O)C3CCCN3C(=O)C(C(C)C)NC2=O)c(N)c1=O (stereo not drawn)
absorption maximum (in C1CCOC1): 524.93 nm
absorption maximum (in CC#N): 516.03 nm
absorption maximum (in CC(=O)O): 521 nm
absorption maximum (in CC(C)=O): 522.69 nm
absorption maximum (in CCCCO): 532.67 nm
absorption maximum (in CCCCOC(C)=O): 524.07 nm
absorption maximum (in CCCO): 533.23 nm
absorption maximum (in CCN(CC)CC): 534.89 nm
absorption maximum (in CCO): 531.93 nm
absorption maximum (in CCOC(C)=O): 522.62 nm
absorption maximum (in CN(C)C=O): 535.18 nm
absorption maximum (in CO): 529.7 nm
absorption maximum (in CS(C)=O): 540.29 nm
absorption maximum (in Cc1ccccc1): 528.44 nm
absorption maximum (in ClC(Cl)Cl): 520.12 nm
absorption maximum (in ClCCCl): 517.19 nm
absorption maximum (in O): 514.17 nm
absorption maximum (in O=[N+]([O-])c1ccccc1): 534 nm
absorption maximum (in c1ccccc1): 522.11 nm
absorption maximum (in c1ccncc1): 541.16 nm

absorption maximum (in CCOC(C)=O): 347 nm
SMILES: CCCCCCCCCCCCOc1ccc(C#CC(C#Cc2ccc(OCCCCCCCCCCCC)cc2)=Cc2cc(C=C(C#Cc3ccc(OCCCCCCCCCCCC)cc3)C#Cc3ccc(OCCCCCCCCCCCC)cc3)cc(C=C(C#Cc3ccc(OCCCCCCCCCCCC)cc3)C#Cc3ccc(OCCCCCCCCCCCC)cc3)c2)cc1

absorption maximum (in ClC(Cl)Cl): 703 nm
SMILES: Cc1ccc(C2=C3C=CC4=[N+]3[B-](F)(F)n3c2ccc3-c2ccc([nH]2)/C(c2ccc(C)cc2)=c2/cc/c(o2)=C(\c2ccc(C)cc2)c2ccc4[nH]2)cc1

absorption maximum (in ClCCl): 315 nm
SMILES: COc1cc2c(cc1OC)C1=C[C@H](c3ccc(C)cc3)C3(C(C#N)=C(C#N)N1CC2)c1cc(Cl)ccc1-c1ccc(Cl)cc13

absorption maximum (in ClC(Cl)Cl): 364 nm
SMILES: c1ccc2c(c1)-c1ccccc1C21c2cc(-c3ccc4ccc5cccc6ccc3c4c56)ccc2-c2ccc(-c3ccc4ccc5cccc6ccc3c4c56)cc21

absorption maximum (in ClC(Cl)Cl): 419 nm
SMILES: CCC(CC)n1c2ccccc2c2cc3c(cc21)c1ccccc1n3C(CC)CC

SMILES: c1ccc(-c2nc(-c3ccccc3)nc(-c3ccc(-c4ccc(N5c6ccccc6[Si](c6ccccc6)(c6ccccc6)c6ccccc65)cc4)cc3)n2)cc1
absorption maximum (in Cc1ccccc1): 308 nm

SMILES: c1cc2ccc3cccc4ccc(c1)c2c34
absorption maximum (in C1CCCCC1): 334 nm
absorption maximum (in CC#N): 335 nm
absorption maximum (in CCCCCC): 330 nm
absorption maximum (in CCO): 334 nm
absorption maximum (in CCOC(C)=O): 335 nm
absorption maximum (in CO): 330 nm
absorption maximum (in Cc1ccccc1): 362 nm
absorption maximum (in ClC(Cl)Cl): 337 nm
absorption maximum (in ClCCl): 333 nm

absorption maximum (in CC#N): 390 nm
absorption maximum (in ClCCl): 387 nm
SMILES: Cc1cc(O)c(C(=O)/C=C/c2ccc(O)c(O)c2)c(=O)o1

absorption maximum (in c1ccccc1): 426 nm
SMILES: Cc1nc2c(ccc3ccc(N(C)C)cc32)oc1=O

absorption maximum (in CC#N): 350 nm
SMILES: O=[N+]([O-])c1ccc(C#Cc2ccccc2C#Cc2ccc([N+](=O)[O-])cc2)cc1

SMILES: Cc1cccc2[n+]1[B-](F)(F)n1c(c3cccc4cccc1c43)=N2
absorption maximum (in C1CCOC1): 472 nm
absorption maximum (in CC#N): 465 nm
absorption maximum (in CCCCCC): 464 nm
absorption maximum (in Cc1ccccc1): 475 nm
absorption maximum (in ClCCl): 441 nm

absorption maximum (in CC#N): 369 nm
absorption maximum (in CCO): 381 nm
SMILES: CC1(C)CC(=O)c2cc(F)c(F)cc2N1

absorption maximum (in CCO): 379 nm
SMILES: Cc1c(COC(=O)Cc2cccc3ccccc23)n2c(OCC(=O)Cc3cccc4ccccc34)c(C)c(=O)n2c1=O

absorption maximum (in ClC(Cl)Cl): 471 nm
SMILES: COc1ccc2c(c1)c(C#N)cc1c(OC)c(OC)c3cc(C#N)c4cc(OC)ccc4c3c12

absorption maximum (in ClCCl): 544 nm
SMILES: CC1=C2C=CC(c3ccccc3)=[N+]2[B-](F)(F)n2c1ccc2-c1ccccc1

absorption maximum (in ClCCl): 342 nm
SMILES: c1ccc(-n2c3ccccc3c3cc([Si](c4ccccc4)(c4ccccc4)c4ccc5c(c4)c4ccccc4n5-c4ccccc4)ccc32)cc1

absorption maximum (in C1CCOC1): 313 nm
absorption maximum (in CC(C)O): 311 nm
absorption maximum (in CO): 309 nm
absorption maximum (in CS(C)=O): 315 nm
absorption maximum (in ClC(Cl)Cl): 314 nm
absorption maximum (in ClCCl): 313 nm
SMILES: COc1ccccc1-c1c(-c2ccccc2O)nc(-c2ccc(C(F)(F)F)cc2)n1-c1ccc(C)cc1

SMILES: COc1ccc(C2=C(c3ccc(OC)cc3)C(c3ccccc3)=[N+]3C2=Nc2c(-c4ccc(OC)cc4)c(-c4ccc(OC)cc4)c(-c4ccccc4)n2[B-]3(F)F)cc1
absorption maximum (in Cc1ccccc1): 654 nm

absorption maximum (in C1CCOC1): 386 nm
SMILES: Cc1ccc(-c2cnc3nn4ccccc4c3c2)cc1

absorption maximum (in ClCCl): 339 nm
SMILES: C1=C(c2ccccn2)[Si](c2ccccc2)(c2ccccc2)c2ccccc21

absorption maximum (in ClCCl): 574 nm
SMILES: c1ccc([B-]23Oc4ccccc4-c4c5[n+]6c(c([n+]42)-c2ccccc2O3)-c2ccccc2O[B-]6(c2ccccc2)Oc2ccccc2-5)cc1

absorption maximum (in CCO): 382 nm
SMILES: COc1ccc(C(=O)COc2c(C)c(=O)n3c(=O)c(C)c(COC(=O)c4ccccc4Cl)n23)cc1

absorption maximum (in ClCCl): 360 nm
SMILES: COc1cccc2cc(C)c3c4ccccc4[nH]c3c12

absorption maximum (in ClCCl): 357 nm
SMILES: C(=C\c1cccc2ccccc12)/c1ncc(-c2ccccc2)o1

SMILES: CCCCCCCC(=O)Oc1ccc2c3cccc4c(OC(=O)CCCCCCC)ccc(c5cccc1c52)c43
absorption maximum (in C1CCOC1): 445 nm
absorption maximum (in Cc1ccccc1): 448 nm
absorption maximum (in ClC(Cl)(Cl)Cl): 448 nm
absorption maximum (in ClC(Cl)Cl): 446 nm
absorption maximum (in ClCCl): 445 nm
absorption maximum (in c1ccncc1): 449 nm

absorption maximum (in C1CCCCC1): 597.5 nm
absorption maximum (in CCOC(C)=O): 598.5 nm
SMILES: CC1=[N+]2C(=C(c3ccc4c(c3)Cc3ccccc3-4)c3ccc(C)n3[B-]2(F)F)C=C1c1cc2n(c1)[B-](F)(F)[N+]1=CC=CC1=C2c1c(C)cc(C)cc1C

absorption maximum (in ClCCl): 433 nm
SMILES: c1cc2ccc3cc4cccc5ccc6cc(c1)c2c3c6c54

absorption maximum (in C1CCOC1): 405 nm
SMILES: Cc1cc(C)c([B-]2(c3c(C)cc(C)cc3C)[O+]=P(c3ccccc3)(c3ccccc3)c3cc(-c4ccc(C(F)(F)F)cc4)sc3-c3sc(-c4ccc(C(F)(F)F)cc4)cc32)c(C)c1

absorption maximum (in ClCCl): 395 nm
SMILES: COC(=O)c1[nH]c(-c2ccc(Br)cc2)c2nnc3ccc(OC)cc3c12

absorption maximum (in CS(C)=O): 400 nm
SMILES: Cc1cccn2c1cc1c3ccccc3nc(-c3ccco3)c12

SMILES: COc1ccc2ncccc2c1
absorption maximum (in CC#N): 329 nm
absorption maximum (in CCCC#N): 329 nm
absorption maximum (in Cc1ccccc1): 331 nm

absorption maximum (in ClCCl): 428 nm
SMILES: CCN(CC)c1ccc2cc(C#N)c(=O)oc2c1

absorption maximum (in CC#N): 412 nm
absorption maximum (in ClCCl): 418 nm
SMILES: COc1ccc(-c2cc3c(s2)c(C(C)=O)cc(=O)n3C)cc1

absorption maximum (in CS(C)=O): 644 nm
SMILES: COc1ccc(-c2c3nc(cc4ccc([nH]4)c(-c4ccc(OC)c(OCCCC(=O)O)c4)c4nc(cc5ccc2[nH]5)CC4)C=C3)cc1OCCCC(=O)O

SMILES: O=C1CCCC2=C1CC1=C(CCCC1=O)N2NC(=O)c1ccc(O)cc1
absorption maximum (in CC#N): 368 nm
absorption maximum (in CC(C)=O): 368 nm
absorption maximum (in CCCCCO): 376 nm
absorption maximum (in CO): 376 nm
absorption maximum (in ClC(Cl)Cl): 368 nm
absorption maximum (in ClCCl): 372 nm

SMILES: CCCCCCCCc1ccc(-c2ccc(/C=C(\C#N)c3ccc(-c4cccc5cccc(-c6ccc(/C(C#N)=C/c7ccc(-c8ccc(CCCCCCCC)cc8)cc7)cc6)c45)cc3)cc2)cc1
absorption maximum (in Cc1ccccc1): 350 nm

SMILES: CN(C)c1ccc(C(=O)Nc2cccc(Br)c2)cc1
absorption maximum (in C1CCCCC1): 310 nm
absorption maximum (in C1CCOC1): 317 nm
absorption maximum (in CC#N): 318 nm
absorption maximum (in CCOCC): 312 nm
